Tests used:
Format in all cases: in vivo
[1] = test system: Penncross creeping bentgrass; assay: Turf quality visual rating at high temperature treatment (Example 1); settings: high temperature 35/30° C., biweekly foliar application
Source text: (§1) The following test methods were used to compare the effectiveness of a phthalocyanine composition according to the invention with known compositions. The following compositions were used in the experiments: Pigment Green 7 obtained from Sun Chemical Corporation as the water-dispersible product SUN T-64-1660 (containing 45 to 55 wt. % of Pigment Green 7) was used alone. A mixture of Pigment Green 7 and fosetyl-al was used as the commercially available product Chipco® Signature™ fungicide from Bayer Environmental Science, Montvale, N.J. The compound fosetyl-al was used as Chipco® Aliette® WDG fungicide available from Bayer Environmental Science, Montvale N.J.
(§2) Seeds of “Penncross” creeping bentgrass were sown in polyvinyl chloride (PVC) tubes (10 cm in diameter and 20 cm in length) filled with coarse sand. Plants were kept in a growth chamber for 90 days before treatment stated to allow root and canopy establishment. The daily temperature in the growth chamber was 20/16° C., the photosynthetic photon flux density was 400 μmol m−2 s−1, and the photoperiod was 12 hours/day. Turf was mowed twice weekly at 4 mm with scissors, irrigated every other day until there was free drainage from the bottom of tubes, and fertilized weekly with 40 ml full-strength Hoagland's nutrient solution (Hoagland and Arnon, 1950). Insecticide was applied to kill whitefly when necessary. […]

[2] = test system: Penncross creeping bentgrass; assay: Canopy net photosynthetic rate at high temperature treatment (Example 1)
Source text: as §1
(§3) Seeds of “Penncross” creeping bentgrass were sown in polyvinyl chloride (PVC) tubes (10 cm in diameter and 20 cm in length) filled with coarse sand. Plants were kept in a growth chamber for 90 days before treatment stated to allow root and canopy establishment. The daily temperature in the growth chamber was 20/16° C., the photosynthetic photon flux density was 400 μmol m−2 s−1, and the photoperiod was 12 hours/day. […]
Canopy net photosynthetic rate was measured as described below using a Li-6400 portable photosynthesis system (available from LiCor, Lincoln, NB).

[3] = test system: Penncross creeping bentgrass; assay: Chlorophyll content at high temperature treatment (Example 1)
Source text: as §1
(§4) Seeds of “Penncross” creeping bentgrass were sown in polyvinyl chloride (PVC) tubes (10 cm in diameter and 20 cm in length) filled with coarse sand. […]
(§5) Chlorophyll and carotenoids were extracted by soaking 50 mg fresh shoots in 20 ml dimethyl sulfoxide (DMSO) in the dark for 72 hours. Absorbance of each extractant at 663 nm, 645 nm, and 470 nm was used to determine chlorophyll content using the formula of Arnon (1949) and carotenoids content using the formula of Lichtenthaler and Wellburn (1983) Canopy photochemical efficiency was estimated by measuring chlorophyll fluorescence (Fv/Fm) using plant photosynthesis efficiency analyzer (available from ADC Bioscientific Limited, Herts, England).

[4] = test system: Penncross creeping bentgrass; assay: Canopy photochemical efficiency (Fv/Fm) at high temperature treatment (Example 1); settings: plants with and without pretreatment
Source text: as §1, §4, §5

[5] = test system: Penncross creeping bentgrass; assay: Carotenoids content at high temperature treatment (Example 1); settings: plants with or without pretreatment
Source text: as §1, §4, §5

[6] = test system: Penncross creeping bentgrass; assay: Final root and canopy biomass at high temperature treatment (Example 1); settings: plants with and without pretreatment, end of experiment
Source text: as §1, §2

[7] = test system: Penncross creeping bentgrass; assay: Root mortality at high temperature treatment (Example 1); settings: plants with or without pretreatment
Source text: as §1, §3
Root mortality was measured using the method of Knievel (1973) with modification.
Samples of 0.5 g clean fresh roots were incubated with 10 mL 0.6% 2,3,5-triphenyltetrazolium chloride (in 0.05 M phosphate buffer, pH 7.4) for 24 hours in the dark at 30° C. […] Absorbance at 490 nm was used to determine root mortality.

Corn = assay: Glasshouse study, soil drench applications of pigment on corn growth and photosynthesis (Example 10); settings: for Chlorophyl: CM1000 meter readings; for Total height (avg, cm): soil to youngest fully expanded leaf tip; for Distance between collars (avg, cm): two top collars; for Net photosynthesis: youngest fully collared leaf
Protocol: A glasshouse study was conducted to determine the effect of soil drench applications of phthalocyanine pigment on corn growth and photosynthesis.
Corn was grown from seed in 6 inch (15 cm) pots in a potting soil mix. Pigment Green 7 was diluted in water in the four amounts per gallon (3.8 liter) of water indicated in the Table and applied directly to the soil. Treatments were initiated in March when corn was at the three leaf stage. Approximately 250 ml of the aqueous pigment mixture was applied to the soil on day 0 and day 6. On day 21 plants were placed in trays containing the pigment Water was maintained in the trays as needed to replenished evapotranspiration.
Net photosynthesis of the youngest fully collared leaf (i.e., leaf 7) was measured using a LiCor 6400 instrument as μmol m−2s−1 of CO2. Leaf chlorophyll measurements were made using a CM1000 leaf […] meter (Spectrum Technologies). Plant height, stem diameter, and leaf width were also measured at the end of the conclusion of the study.

Substance: Pigment Green 7
- Turf quality (visual, scale 0 to 9) ([1]; plants with pretreatment (sprayed 4 weeks before heat)): highest
- Turf quality (visual, scale 0 to 9) ([1]; plants without pretreatment): higher turf quality than applications of Signature fungicide, Aliette fungicide, and water
- Net photosynthetic rate (Pn) ([2]; plants with pretreatment): higher with application of Pigment Green 7 and Signature fungicide than with application of Aliette fungicide and water
- Net photosynthetic rate (Pn) ([2]; plants without pretreatment): highest
- Chlorophyll content (fresh weight basis) ([3]; plants with pretreatment): highest
- Chlorophyll content (fresh weight basis) ([3]; plants without pretreatment): higher with application of Signature fungicide and Pigment Green 7 than with application of Aliette fungicide
- Photochemical efficiency (Fv/Fm) [4]: highest
- Carotenoids content [5]: higher with application of Signature fungicide and Pigment Green 7 than with application of Aliette fungicide and water
- Canopy biomass (dry weight) [6]: higher with application of Signature fungicide and Pigment Green 7 than with application of Aliette fungicide and water
- Roots biomass (dry weight) [6]: higher with application of Signature fungicide and Pigment Green 7 than with application of Aliette fungicide and water
- Root mortality [7]: lower root mortality than application of Signature fungicide and Aliette fungicide
- Height soil to collar (avg, cm) (Corn; pigment concentration 1 g/gal): 58 cm
- Leaf width (avg, cm) (Corn; pigment concentration 1 g/gal): 5.2 cm
- Stem diameter (avg, cm) (Corn; pigment concentration 1 g/gal): 1.04 cm
- Chlorophyl (Corn; pigment concentration 1 g/gal): 141
- Total height (avg, cm) (Corn; pigment concentration 1 g/gal): 145 cm
- Distance between collars (avg, cm) (Corn; pigment concentration 1 g/gal): 4.9 cm
- Net photosynthesis (Corn; pigment concentration 1 g/gal): 13.0 μmol m−2s−1 of CO2
- Height soil to collar (avg, cm) (Corn; pigment concentration 8 g/gal): 59 cm
- Leaf width (avg, cm) (Corn; pigment concentration 8 g/gal): 5.6 cm
- Stem diameter (avg, cm) (Corn; pigment concentration 8 g/gal): 0.99 cm
- Chlorophyl (Corn; pigment concentration 8 g/gal): 122
- Total height (avg, cm) (Corn; pigment concentration 8 g/gal): 148 cm
- Distance between collars (avg, cm) (Corn; pigment concentration 8 g/gal): 5.5 cm
- Net photosynthesis (Corn; pigment concentration 8 g/gal): 12.8 μmol m−2s−1 of CO2
- Height soil to collar (avg, cm) (Corn; pigment concentration 16 g/gal): 55 cm
- Leaf width (avg, cm) (Corn; pigment concentration 16 g/gal): 5.2 cm
- Stem diameter (avg, cm) (Corn; pigment concentration 16 g/gal): 1.01 cm
- Chlorophyl (Corn; pigment concentration 16 g/gal): 115
- Total height (avg, cm) (Corn; pigment concentration 16 g/gal): 137 cm
- Distance between collars (avg, cm) (Corn; pigment concentration 16 g/gal): 5.7 cm
- Net photosynthesis (Corn; pigment concentration 16 g/gal): 13.6 μmol m−2s−1 of CO2
- Height soil to collar (avg, cm) (Corn; pigment concentration 32 g/gal): 54 cm
- Leaf width (avg, cm) (Corn; pigment concentration 32 g/gal): 5.6 cm
- Stem diameter (avg, cm) (Corn; pigment concentration 32 g/gal): 1.00 cm
- Chlorophyl (Corn; pigment concentration 32 g/gal): 132
- Total height (avg, cm) (Corn; pigment concentration 32 g/gal): 132 cm
- Distance between collars (avg, cm) (Corn; pigment concentration 32 g/gal): 6.0 cm
- Net photosynthesis (Corn; pigment concentration 32 g/gal): 13.3 μmol m−2s−1 of CO2

Source: patent publication US20180303101A1, “METHOD OF IMPROVING GRASS QUALITY” (priority 2004, published 2018)
